Reference: US20240200074A1, “METHOD AND COMPOSITIONS FOR PREVENTING TUMOR DEVELOPMENT AND METASTASIS” (The Administrators of the Tulane Educational Fund, priority 2021, published 2024)
“Also recorded” adds a separate entry of the source.

Legend:
wild type 4IC cells = assay: 4IC tumors in vivo, combination therapy with Paclitaxel and TRAF3IP2-AO; details: vs SCR-AO group
Method: At first, tumors were induced using wild type 4IC cells using a similar set up described in FIG. 5. After tumor induction, each group was treated with one of the following: SCR-AO (4IC SCR-AO Treated), SCR-AO and Paclitaxel (SCR-AO+Paclitaxel Treated), TRAF3IP2-AO Treated, or TRAF3IP2-AO and Paclitaxel (TRAF3IP2-AO+Paclitaxel Treated).

4IC = assay: Cell cycle profile of 4IC cells in vitro, Paclitaxel and TRAF3IP2 knockdown; assay type: cell-based, human
Description: One chemotherapy agent being tested is Paclitaxel. […] Paclitaxel has been previously shown to arrest cell cycle progression at the G2/M phase, resulting in apoptosis.

TNBC cells = assay: Membrane potential assay (mitochondrial) in TNBC cells; assay type: cell-based, human; details: in TRAF3IP2 knockdown cells
TNBC [1] = assay: Detection of micrometastasis using PCR in TNBC metastatic niches of AO treated animals; assay type: in vivo, mice; details: α-satellite DNA of chromosome 17
Method: FIG. 4E. Detection of micrometastasis using PCR. Key TNBC metastatic niches were analyzed for micrometastasis using primers directed towards a human-specific alpha-satellite DNA sequence of the centromere region of human chromosome 17.
Moreover, PCR using primers that specifically detect human-specific a-satellite DNA sequence of the centromere region of human chromosome 17 indicated no micrometastasis in the treated group.

BN2 glioblastoma [2] = assay: Glioblastoma PDX (BN2) intracranial model, ICV administration of AO, 2PE imaging and histology; assay type: in vivo, NSG mice
Description: For the experiments reported here, the BN2 glioblastoma specimen was used in xenograft studies, and the results are shown in FIG. 14. Glioblastoma was induced by intracranial injection of tumor cells (into the left SSCx of NSG mice; 3×10^5 cells in PBS+Martigel; n=5 mice/group) isolated from primary glioblastoma tissue. At the time of the injection, a chronic cranial window was installed on the left side of the animal's skull that allowed in vivo 2PE imaging of tumor evolution.
For intracerebroventricular (ICV) administration of AO targeting TRAF3IP2 (TRAF3IP2-AO) or control scrambled AO (SCR-AO), a brain cannula was stereotaonctically implanted into the contralateral (right) ventricle (FIG. 14-A). Treatment of mice started on day 10 post-tumor induction with 5 μl every 48 h; 30 nanomolar AO (FIG. 14-B).
Using in vivo 2PE microscopy, angiograms of microvessels in glioblastoma tumors were captured through a cranial window after i.v. injection of fluorescein isothiocyanatedextran for visualization of blood vessels (green signal). Images correspond to day 24 post-tumor induction, after 8 ICV treatments with either SCR-AO (B, I&II; control group), or TRAF3IP2-AO (B IV&V).
Protein expression in residual tumors confirmed that targeting TRAF3IP2 suppresses inflammation, neoangiogenesis, cell cycle and apoptosis (FIG. 14-D).

TRAF3IP2 = assay: Post-mortem Western blotting and immunohistochemical analysis of residual TNBC tumor of AO treated animals; assay type: in vivo
Description: Post-mortem analysis of residual tumor confirmed that targeting TRAF3IP2 suppresses inflammation, angiogenesis, cell cycle and apoptosis, and genes involved in exosome release (FIG. 7(A)).

BN2 glioblastoma [3] = assay: Detection of intracranial dissemination by PCR of human-specific α-satellite DNA in brain biopsies; assay type: in vivo, NSG mice; details: compared to SCR-AO treated group
Description: To detect intracranial micrometastasis, the animals in experiments detailed in FIG. 14 were biopsied from adjacent sections of brain. The biopsy specimen were subjected to PCR assay using primers that specifically detect human-specific a-satellite DNA sequence of the centromere region of chromosome 17. Areas evaluated include the left parietal lobe, at a distance of 2 mm from the focus of initial tumor inoculation (Area I) and the right SSCx equidistant from the interhemispheric fissure relative to the focus of initial tumor inoculation (Area II) (FIG. 15).

TNBC [4] = assay: TNBC treated in vivo with antisense oligonucleotide, immunohistochemical analysis of angiogenesis
Description: Also, it is notable that TRAF3IP2 induces the expression and release of pro-angiogenic mediators into the TME, activating endothelial cells to promote neo-vascularization. TRAF3IP2 silencing.

4IC tumors = assay: Treatment of late stage metastatic TNBC, bioluminescence imaging; assay type: in vivo, mice; details: 100 μg in 50 μl interperitoneally every 48 hours from day 42
Method: To see if targeting and silencing TRAF3IP2 eliminates metastatic tumors in advanced metastatic TNBC, PDX model were used. 4IC tumors were induced intramammary into mice using 4IC cells [carrying a luciferase-expressing gene for ‘bioluminescence imaging’. Treatment was initiated in late stage BC indicated by advanced metastasis detectable by luciferase imaging (day 42). Animals were treated with TRAF3IP2-AO (100 μg in 50 μl) administered interperitoneally every 48 hours. Control group received SCR-AO in the same fashion (Data not shown). Representative images showing the extend of metastasis after treatment 1(T1), T5, T10, and T15. The control animals were treated with SCR-AO only on T1 and were euthanized due to the increasing tumor growth.

U87 = assay: MTT assay with IGU, adult GBM cell line; assay type: cell-based, human
Method: (§1) In vitro investigations were carried out using transduced TNBC cell line (MDAMB-231) and patient derived TNBC cells (4IC), pediatric GBM cell line (KNS), and adult GBM cell line (U87) by targeting and suppressing/silencing TRAF3IP2 expression using shRNA Lentiviral vector (TRAF3IP2KD) versus shRNA control (SCR). Using MTT assay, we treated malignant cells with low and high concentrations of IGU to test cell proliferation, viability, and apoptosis compared to vehicle (DMSO) treated cells. It is shown in FIG. 16 that the silencing of TRAF3IP2 enhances the effect of IGU on adult glioblastoma cells (U87), pediatric glioblastoma cells (KNS) and on triple negative cancer cell growth (data not shown).

KNS = assay: MTT assay with IGU, pediatric GBM cell line; assay type: cell-based, human
Method: as §1

CC(=O)O[C@H]1C(=O)[C@@]2(C)[C@H]([C@H](OC(=O)c3ccccc3)[C@]3(O)C[C@H](OC(=O)[C@H](O)[C@@H](NC(=O)c4ccccc4)c4ccccc4)C(C)=C1C3(C)C)[C@]1(OC(C)=O)CO[C@@H]1C[C@@H]2O [Paclitaxel, reference compound]
reduction of tumor volume / tumor size (wild type 4IC cells): 42% | increase of proportion of cells in G2 (4IC): 23%

FCCP
mitochondrial membrane potential on addition of FCCP (TNBC cells): does not decrease mitochondrial membrane potential

TRAF3IP2-AO: anti-sense oligonucleotide targeting TRAF3IP2, SEQ ID NO: 2 mG*mG*mU*mG*mG*G*C*A*C*A*T*G*C*T*C*mC*mU*mU*mC*mU
micrometastasis: human-specific DNA sequence in most common metastatic sites (TNBC [1]): No human specific DNA sequence was detected | tumor growth / tumor size (BN2 glioblastoma [2]; ICV, 5 μl every 48 h, 30 nanomolar AO from day 10, vs. SCR-AO): reduced tumor growth; also recorded: marked reduction in tumor size; also recorded: significantly less growth and smaller volumes | blood vessel density / vascularization (BN2 glioblastoma [2]; compared to SCR-AO treated): lower blood vessel density/angiogenesis; also recorded: less vascularization | glioblastoma cells (human cells) in residual tumor tissue, staining for human-specific mitochondria (BN2 glioblastoma [2]; mouse, in vivo): significantly less number | infiltrating cells in subcortical areas (histology of brain sections) (BN2 glioblastoma [2]; mouse, in vivo): significantly smaller number of infiltrating cells | immunohistochemical levels of TRAF3IP2, IL8 and Caspase 3 in tumor (TRAF3IP2; treated group vs. SCR-AO): decreased levels of TRAF3IP2 and IL8 and increased Caspase 3 | levels of TRAF3IP2, IL8, IL1b, and VEGF in tumors (protein expression analysis) (TRAF3IP2; vs. SCR-AO): significantly lower levels | reduction of tumor volume / tumor size (wild type 4IC cells): 78% | intracranial metastasis at Area I (left parietal lobe) and Area II (right SSCx) (BN2 glioblastoma [3]): markedly reduced metastasis at both sites | tumor growth (TNBC [4]; TNBC in vivo): reduced tumor growth | blood vessel density/angiogenesis (CD31 staining) (TNBC [4]; compared to SCR-AO treated tumors): lower blood vessel density/angiogenesis | TNBC cells (human cells) in residual tumor tissue, staining for human-specific mitochondria (TNBC [4]; in vivo): significantly less number | luciferase signal (metastasis) (4IC tumors): marked reduction of luciferase signal, reaching undetectable levels after 15 treatments

CS(=O)(=O)Nc1cc2occ(NC=O)c(=O)c2cc1Oc1ccccc1 [IGU, N-[7-(methanesulfonamido)-4-oxo-6-phenoxychromen-3-yl]formamide]
cell viability (U87; 48 hours, C2 (224.823 mM IGU), U87TRAF3IP2KD): about 40% | cell viability (U87; 48 hours, C2 (224.823 mM IGU), control group U87): about 50% | cell viability (U87; 72 hours, C2, U87TRAF3IP2KD): about 20% | cell viability (U87; 72 hours, C2, control group U87): about 40% | cell viability (KNS; 24 hours, C2, KNS control): about 65% | cell viability (KNS; 24 hours, C2, KNSTRAF3IP2KD): about 55% | cell viability (KNS; 48 hours, C1, KNS control): about 55% | cell viability (KNS; 48 hours, C1, KNSTRAF3IP2KD): about 45% | cell viability (KNS; 72 hours, C2, KNS control): about 40% | cell viability (KNS; 72 hours, C2, cells not named (KNSTRAF3IP2KD implied)): about 25%
